Test results as given in patent US20260166162A1, “CARBON CHAIN SUBSTANCE FOR REGULATING TRANSMEMBRANE TRANSPORT AND FLUIDITY OF CELL MEMBRANES, AND PREPARATION AND USE THEREOF” (priority 2022, published 2026).
Several values for one entry are separate records, joined by “and”; a condition that tells them apart may be missing. Equal entries are not always repeated.

How the values were obtained:
IL-1β [1] = assay: LPS inflammatory aging in C57BL/6 mice, serum IL-1β (Example II-55, Table II-35); type: in vivo, mouse; settings: 1 mM, 200 μl/time, once a day, 30 days
IL-6 [2] = assay: Skin photoaging (UVB) in BALB/c nude mice, serum IL-6 (Example II-54, Table II-34); type: in vivo, mouse; settings: mouse, in vivo
IL-1β [3] = assay: Skin photoaging (UVB) in BALB/c nude mice, serum IL-1β (Example II-54, Table II-33); type: in vivo, mouse; settings: mouse, in vivo
IL-6 [4] = assay: LPS inflammatory aging in C57BL/6 mice, serum IL-6 (Example II-55, Table II-36); type: in vivo, mouse; settings: mouse, in vivo
TNF-α [5] = assay: LPS inflammatory aging in C57BL/6 mice, serum TNF-α (Example II-55, Table II-37); type: in vivo, mouse; settings: 1 mM, 200 μl/time once a day for 30 days, LPS C57BL/6 mice
TNF-α [6] = assay: Skin photoaging (UVB) in BALB/c nude mice, serum TNF-α (Example II-54, Table II-32); type: in vivo, mouse; settings: UVB-irradiated BALB/c nude mice, 40 days
Hela cells [7] = assay: Cell membrane fluidity (Laurdan fluorescence recovery) in Hela cells; type: cell-based
Hela cells [8] = assay: Phagocytosis of adriamycin-loaded ferroferric oxide nanoparticles by Hela cells; type: cell-based; settings: 5 nM for 1 h, then nanoparticles 4 h
Method: Hela cells (cell bank, Chinese Academy of Sciences) were seeded in a 6-well plate at a density of 1.0*10^5 and cultured for 24 h. The cells were treated with 5 nM Ser-EPA for 1 h and washed to remove Ser-EPA. Adriamycin-loaded ferroferric oxide nanoparticles were added followed by incubation for 4 h. Then, the cells were washed with PBS, stained with DAPI, and observed with confocal microscope.

CCC=CCC=CCC=CCC=CCC=CCCCC(=O)NC(CO)C(=O)O (stereo not drawn) [Ser-EPA, Serine-EPA]
IL-1β (IL-1β [1]): 48 pg/mL
IL-6 (IL-6 [2]): 41 pg/mL and 38 pg/mL and 39 pg/mL
IL-1β (IL-1β [3]): 57 pg/mL and 61 pg/mL and 54 pg/mL
IL-6 (IL-6 [4]): 47 pg/mL
TNF-α (TNF-α [5]): 48 pg/mL
TNF-α (TNF-α [6]; 30 μM smeared): 54 pg/mL
TNF-α (TNF-α [6]; 50 μM smeared): 49 pg/mL
TNF-α (TNF-α [6]; 100 μM smeared): 44 pg/mL
Fluorescence recovery rate % (Hela cells [7]; 2 nM, 20 s): 63.44%
Fluorescence recovery rate % (Hela cells [7]; 2 nM, 40 s): 65.36%
Fluorescence recovery rate % (Hela cells [7]; 2 nM, 60 s): 65.21%
Fluorescence recovery rate % (Hela cells [7]; 2 nM, 80 s): 66.35%
Fluorescence recovery rate % (Hela cells [7]; 5 nM, 20 s): 64.73%
Fluorescence recovery rate % (Hela cells [7]; 5 nM, 40 s): 64.59%
Fluorescence recovery rate % (Hela cells [7]; 5 nM, 60 s): 65.66%
Fluorescence recovery rate % (Hela cells [7]; 5 nM, 80 s): 67.97%
Fluorescence recovery rate % (Hela cells [7]; 10 nM, 20 s): 64.66%
Fluorescence recovery rate % (Hela cells [7]; 10 nM, 40 s): 65.11%
Fluorescence recovery rate % (Hela cells [7]; 10 nM, 60 s): 65.24%
Fluorescence recovery rate % (Hela cells [7]; 10 nM, 80 s): 66.83%
Fluorescence recovery rate % (Hela cells [7]; 50 nM, 20 s): 62.84%
Fluorescence recovery rate % (Hela cells [7]; 50 nM, 40 s): 62.94%
Fluorescence recovery rate % (Hela cells [7]; 50 nM, 60 s): 63.04%
Fluorescence recovery rate % (Hela cells [7]; 50 nM, 80 s): 64.54%
Fluorescence recovery rate % (Hela cells [7]; 50 μM, 20 s): 64.33%
Fluorescence recovery rate % (Hela cells [7]; 50 μM, 40 s): 72.49%
Fluorescence recovery rate % (Hela cells [7]; 50 μM, 60 s): 73.77%
Fluorescence recovery rate % (Hela cells [7]; 50 μM, 80 s): 81.40%
Fluorescence recovery rate % (Hela cells [7]; 100 μM, 20 s): 65.72%
Fluorescence recovery rate % (Hela cells [7]; 100 μM, 40 s): 72.99%
Fluorescence recovery rate % (Hela cells [7]; 100 μM, 60 s): 74.34%
Fluorescence recovery rate % (Hela cells [7]; 100 μM, 80 s): 80.39%
phagocytosis of nanoparticles by treated cells (Hela cells [8]): significantly inhibited
